How the values were obtained:
Assay type in all cases: in vivo
[1] = tested on: ryegrass, Italian (Lolium multiflorum); test: Test A preemergence, Italian ryegrass; conditions: 0 to 100 scale, 0 is no effect, 100 is complete control
How it was run: (§1)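 Ratings reflect visual comparison with untreated controls roughly 10 d after greenhouse application, 0 meaning no effect and 100 complete control. Treatment was by directed soil spray at planting or by spray onto one- to two-leaf plants in loam/sand pots.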

kochia (Kochia scoparia) [2] = test: Test A postemergence, kochia; conditions: 0 to 100 scale; for Plant response rating, Kochia: 0 no effect, 100 complete control
How it was run: as §1

[3] = tested on: pigweed (Amaranthus retroflexus); test: Test A postemergence, pigweed; conditions: 0 to 100 scale; for Plant response rating, Pigweed: 0 no effect, 100 complete control
How it was run: as §1

[4] = tested on: wheat (Triticum aestivum); test: Test A postemergence, wheat; conditions: 0 to 100 scale; for Plant response rating, Wheat: 0 no effect, 100 complete control
How it was run: as §1

[5] = tested on: pigweed (Amaranthus retroflexus); test: Test A preemergence, pigweed; conditions: 0 to 100 scale, 0 is no effect, 100 is complete control
How it was run: as §1

[6] = tested on: blackgrass (Alopecurus myosuroides); test: Test A postemergence, blackgrass; conditions: 0 to 100 scale; for Plant response rating, Blackgrass: 0 no effect, 100 complete control
How it was run: as §1

[7] = tested on: foxtail, giant (Setaria faberii); test: Test A preemergence, giant foxtail; conditions: 0 to 100 scale, 0 is no effect, 100 is complete control
How it was run: as §1

[8] = tested on: ryegrass, Italian (Lolium multiflorum); test: Test A postemergence, Italian ryegrass; conditions: 0 to 100 scale; for Plant response rating, Ryegrass, Italian: 0 no effect, 100 complete control
How it was run: as §1

kochia (Kochia scoparia) [9] = test: Test A preemergence, kochia; conditions: 0 to 100 scale, 0 is no effect, 100 is complete control
How it was run: as §1

rice (Oryza sativa) = test: Test B flooded paddy test, rice; conditions: Flood, 250 g ai/ha, applied to paddy water, 2-leaf stage, visual evaluation after 13 to 15 d
How it was run: (§2)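 Pots flooded to 3 cm above the soil when treated, with test compound added straight to the water and the flood maintained. Treated plants were at the 2-leaf stage and stayed 13–15 d in greenhouse. Response versus untreated controls scored visually from 0 (no effect) to 100 (complete control).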

corn (Zea mays) = test: Test A postemergence, corn; conditions: 0 to 100 scale; for Plant response rating, Corn: 0 no effect, 100 complete control
How it was run: as §1

[10] = tested on: ragweed (common ragweed, Ambrosia elatior); test: Test A postemergence, ragweed; conditions: 0 to 100 scale; for Plant response rating, Ragweed: 0 no effect, 100 complete control
How it was run: as §1

[11] = tested on: ragweed (common ragweed, Ambrosia elatior); test: Test A preemergence, ragweed; conditions: 0 to 100 scale, 0 is no effect, 100 is complete control
How it was run: as §1

[12] = tested on: foxtail, giant (Setaria faberii); test: Test A postemergence, giant foxtail; conditions: 0 to 100 scale; for Plant response rating, Foxtail, Giant: 0 no effect, 100 complete control
How it was run: as §1

[13] = tested on: galium (catchweed bedstraw, Galium aparine); test: Test A postemergence, galium; conditions: 0 to 100 scale; for Plant response rating, Galium: 0 no effect, 100 complete control
How it was run: as §1

[14] = tested on: ducksalad (Heteranthera limosa); test: Test B flooded paddy test, ducksalad; conditions: Flood, 250 g ai/ha, applied to paddy water, 2-leaf stage, visual evaluation after 13 to 15 d
How it was run: as §2

[15] = tested on: barnyardgrass (Echinochloa crus-galli); test: Test A preemergence, barnyardgrass; conditions: 0 to 100 scale, 0 is no effect, 100 is complete control
How it was run: as §1

[16] = tested on: barnyardgrass (Echinochloa crus-galli); test: Test A postemergence, barnyardgrass; conditions: 0 to 100 scale; for Plant response rating, Barnyardgrass: 0 no effect, 100 complete control
How it was run: as §1

[17] = tested on: barnyardgrass (Echinochloa crus-galli); test: Test B flooded paddy test, barnyardgrass; conditions: Flood, 250 g ai/ha, applied to paddy water, 2-leaf stage, visual evaluation after 13 to 15 d
How it was run: as §2

[18] = tested on: sedge, umbrella (small-flower umbrella sedge, Cyperus difformis); test: Test B flooded paddy test, umbrella sedge; conditions: Flood, 250 g ai/ha, applied to paddy water, 2-leaf stage, visual evaluation after 13 to 15 d
How it was run: as §2

[19] = 500 g ai/ha, 0 is no effect, 100 is complete control

Structure (SMILES) | Ryegrass, Italian plant response rating ([1]; 125 g ai/ha) | Ryegrass, Italian plant response rating ([1]; 500 g ai/ha) | Plant response rating, Kochia (kochia (Kochia scoparia) [2]; 125 g ai/ha) | Plant response rating, Pigweed ([3]; 125 g ai/ha) | Plant response rating, Wheat ([4]; 125 g ai/ha) | Pigweed plant response rating ([5]; 125 g ai/ha) | Pigweed plant response rating ([5]; 500 g ai/ha) | Plant response rating, Blackgrass ([6]; 125 g ai/ha) | Foxtail, Giant plant response rating ([7]; 125 g ai/ha) | Foxtail, Giant plant response rating ([7]; 500 g ai/ha) | Plant response rating, Ryegrass, Italian ([8]; 125 g ai/ha) | Kochia plant response rating (kochia (Kochia scoparia) [9]; 125 g ai/ha) | Kochia plant response rating (kochia (Kochia scoparia) [9]; 500 g ai/ha) | Plant response rating, Rice (0 to 100 scale, 0 is no effect, 100 is complete control) (rice (Oryza sativa)) | Plant response rating, Corn (corn (Zea mays); 125 g ai/ha) | Plant response rating, Ragweed ([10]; 125 g ai/ha) | Ragweed plant response rating ([11]; 125 g ai/ha) | Ragweed plant response rating ([11]; 500 g ai/ha) | Plant response rating, Foxtail, Giant ([12]; 125 g ai/ha) | Plant response rating, Galium ([13]; 125 g ai/ha) | further results
CC(C)[C@@H](Nc1ncc(C(F)(F)F)c(N)n1)c1cc2ccccc2s1 [Compound 50] | 0 | 0 | 20 | 60 | 0 | 0 | 40 | 0 | 0 | 10 | 30 | 40 | 60 | 0 | 0 | 0 | 0 | 0 | 0 | 10 | Kochia plant response rating (kochia (Kochia scoparia) [2]; [19]): 60; Pigweed plant response rating [3, 19]: 90; Wheat plant response rating [4, 19]: 0; Blackgrass plant response rating [6, 19]: 0; Ryegrass, Italian plant response rating [8, 19]: 0; Corn plant response rating (corn (Zea mays); [19]): 10; Ragweed plant response rating [10, 19]: 30; Foxtail, Giant plant response rating [12, 19]: 40; Galium plant response rating [13, 19]: 20; Plant response rating, Ducksalad (0 to 100 scale, 0 is no effect, 100 is complete control) [14]: 0; Barnyardgrass plant response rating ([15]; 125 g ai/ha): 0; Barnyardgrass plant response rating ([15]; 500 g ai/ha): 10; Plant response rating, Barnyardgrass ([16]; 125 g ai/ha): 0; Barnyardgrass plant response rating [16, 19]: 0; Plant response rating, Barnyardgrass (0 to 100 scale, 0 is no effect, 100 is complete control) [17]: 0; Plant response rating, Sedge, Umbrella (0 to 100 scale, 0 is no effect, 100 is complete control) [18]: 0
C[C@@H](Nc1ncc(C(F)(F)F)c(N)n1)c1coc2cc(Cl)ccc12 [Compound 55] | 20 | 70 | 70 | 100 | 0 | 80 | 100 | 0 | 50 | 90 | 30 | 40 | 90 | 0 | 10 | 50 | 100 | 100 | 20 | 70 | Plant response rating, Kochia (kochia (Kochia scoparia) [2]; 500 g ai/ha): 90; Plant response rating, Pigweed ([3]; 500 g ai/ha): 100; Plant response rating, Wheat ([4]; 500 g ai/ha): 0; Plant response rating, Blackgrass ([6]; 500 g ai/ha): 20; Plant response rating, Ryegrass, Italian ([8]; 500 g ai/ha): 30; Plant response rating, Corn (corn (Zea mays); 500 g ai/ha): 0; Plant response rating, Ragweed ([10]; 500 g ai/ha): 80; Plant response rating, Foxtail, Giant ([12]; 500 g ai/ha): 90; Plant response rating, Galium ([13]; 500 g ai/ha): 90; Plant response rating, Ducksalad (0 to 100 scale, 0 is no effect, 100 is complete control) [14]: 70; Barnyardgrass plant response rating ([15]; 125 g ai/ha): 80; Barnyardgrass plant response rating ([15]; 500 g ai/ha): 80; Plant response rating, Barnyardgrass ([16]; 125 g ai/ha): 30; Plant response rating, Barnyardgrass ([16]; 500 g ai/ha): 70; Plant response rating, Barnyardgrass (0 to 100 scale, 0 is no effect, 100 is complete control) [17]: 30; Plant response rating, Sedge, Umbrella (0 to 100 scale, 0 is no effect, 100 is complete control) [18]: 98

From US20220119354A1, “DIAMINO-SUBSTITUTED PYRIDINES AND PYRIMIDINES AS HERBICIDES” (FMC Corporation, priority 2019, published 2022)
